We go through two compounds from patent US8598146B2, “Methods for identifying modulators of protein kinase C-epsilon (PKCε) and method of treatment of aberrant glucose metabolism associated therewith” (Garvan Institute of Medical Research, priority 2003, dated 2013).

Assay [1] has as its system pancreatic islets. Description: glucose-stimulated insulin secretion from pancreatic islets with carbamylcholine (FIG. 13). The format is cell-based, mouse. Particulars: 0.1 mM carbamylcholine with 20 mM glucose; islets from wild type and PKCε−/− mice.
Assay [2] deals with pancreatic beta cells. Particulars: 100 nM glyburide in the presence of 20 mM glucose; cited from earlier work.

For the compound `C[N+](C)(C)CCOC(N)=O.[Cl-]` [carbamylcholine], the glucose-stimulated insulin secretion result in assay [1] is reported as “potentiation”.
With `COc1ccc(Cl)cc1C(=O)NCCc1ccc(S(=O)(=O)NC(=O)NC2CCCCC2)cc1` [glyburide], in assay [2], the insulin secretion entry is given as “enhances insulin secretion”.
